As usually defined, the EC50 is the concentration that produces a half-maximal response.

Where “and” joins values, the source holds several entries; their conditions need not be identical. Equal values may be shown once. Read-outs that look alike come from different tables or passages of the source.

The test system of data set [1] is P-gp.
In data set [2] the test system is P-gp. Description: in vitro. The note with it: human, EC50 to up-regulate P-gp expression.
For data set [3] the following is noted: ref Facts & Comparisons 4.0, online edition, cited from earlier work.
For data set [4], the system named is P-gp. Briefly: Western blot analysis of P-gp protein expression in drug-treated LS-180 cells. In general terms: A western blot detects proteins with antibodies after separation by electrophoresis.
In data set [5] the test system is MDR1 mRNA. The note with it: LS-180 cells, 48 h, 50 μM.
The test system of data set [6] is P-gp. Briefly: in vitro. The note with it: human, EC50 to up-regulate P-gp activity.
Data set [7] concerns P-gp. The settings on record: rat, three-day in vivo treatment, 20 mg/kg once daily; cited from earlier work.

As to `Cn1c(=O)c2c(ncn2C)n(C)c1=O` [Caffeine, caffeine], in data set [1], the “increase in P-gp activity” value was 250–300%. Also, the EC50 at 48 h in data set [2] was 9.1 µM. Moreover, the “plasma concentration, range” value in data set [3] (after 250 mg dose) is 25 to 130 µM.
For the compound `C[C@@H]1C[C@H]2[C@@H]3CCC4=CC(=O)C=C[C@]4(C)[C@@]3(F)[C@@H](O)C[C@]2(C)[C@@]1(O)C(=O)CO` [Dexamethasone, dexamethasone], the EC50 at 48 h in data set [2] stood at 46 µM.
Regarding `C1CCc2nnnn2CC1` [Pentylenetetrazole, pentylenetetrazole], in data set [1] (LS-180 cells, 48 h, 50 μM), the “induction in P-gp activity” value stood at 70%. Further, the “increase in P-gp activity” value is ~ 80% in data set [1] (LS-180 cells, 48 h, concentration range 25–100 μM) and 80% in data set [1] (LS-180 cells, 48 h, concentration range 25–100 μM, listed as pentylenetetrazole). Moreover, the “Emax (fold ↑ in P-gp activity)” value in data set [1] (LS-180 cells, 48 h, four-parameter Hill fit) was found to be 2.0 fold. Also, the “increase in P-gp expression” value in data set [4] (48 h, 50 μM) is ~ 10%; in data set [4] (48 h, 100 μM), 100%. Besides, in data set [4] (48 h, concentrations at 50 μM and higher), the “up-regulation of P-gp protein levels” value is not above 2 fold. Further, the half-maximal effective concentration (EC50) at 48 h in data set [4] (human, EC50 to up-regulate P-gp expression, following normalization to 100%) is more than 50 µM; in data set [6] it was 11.8 µM. In data set [5], the “fold increase in MDR1 mRNA level” value is ~ 3 fold and 3–4 fold.
Take `CO[C@H]1/C=C/O[C@@]2(C)Oc3c(C)c(O)c4c(O)c(c(/C=N/N5CCN(C)CC5)c(O)c4c3C2=O)NC(=O)/C(C)=C\C=C\[C@H](C)[C@H](O)[C@@H](C)[C@@H](O)[C@@H](C)[C@H](OC(C)=O)[C@@H]1C` [Rifampicin]: in data set [1] (LS-180 cells, 48 h, over the range 5–100 μM), the “increase in P-gp activity” value was 60–290%. The compound further yielded an EC50 at 48 h in data set [2] of 5 µM. The “plasma concentrations, range” value in data set [3] (following 600 mg dose) was 5 to 38 µM.
As for `CC(C)c1nc(CN(C)C(=O)N[C@H](C(=O)N[C@@H](Cc2ccccc2)C[C@H](O)[C@H](Cc2ccccc2)NC(=O)OCc2cncs2)C(C)C)cs1` [ritonavir], in data set [7], the “increase in P-gp expression at the BBB” value was 30%.
In the case of hyperforin, the “increase in P-gp activity” value in data set [1] (LS-180 cells, 48 h, 50 nM) was determined as 110%; in data set [1] (LS-180 cells, 48 h, 150 nM), 190%.

(Values after article PMC3172709 (Journal of pharmacy & pharmaceutical sciences : a …, 2011).)
